ChEMBL document CHEMBL1201862, “PubChem BioAssay data set” (2004)
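Interpolation was linear, between the two tested concentrations surrounding the appropriate level; five concentrations were tested over 48 hours in 96-well plates. GI50 = concentration required for 50% inhibition of growth.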 Active and inactive are the calls of the source. Rule as the data show it: active = GI50 up to about 1.1 µM and inactive = higher.

Columns and labels:
Experiment in all cases: growth of human tumour cells (NCI), 48 h
CCRF-CEM = tested on: CCRF-CEM
HCT-15 = tested on: HCT-15
UACC-257 = tested on: UACC-257
SNB-75 = tested on: SNB-75
UACC-62 = tested on: UACC-62
SR = tested on: SR
A549 = tested on: A549
KM12 = tested on: KM12
SF-539 = tested on: SF-539
NCI-H522 = tested on: NCI-H522
SF-268 = tested on: SF-268
NCI-H460 = tested on: NCI-H460
OVCAR-5 = tested on: OVCAR-5
HCT-116 = tested on: HCT-116
EKVX = tested on: EKVX
SN12C = tested on: SN12C
U-251 = tested on: U-251
MDA-MB-435 = tested on: MDA-MB-435
CAKI-1 = tested on: CAKI-1
NCI/ADR-RES = tested on: NCI/ADR-RES
MDA-N = tested on: MDA-N
TK-10 = tested on: TK-10
RPMI-8226 = tested on: RPMI-8226
SW-620 = tested on: SW-620
T47D = tested on: T47D
SK-MEL-28 = tested on: SK-MEL-28
OVCAR-4 = tested on: OVCAR-4
OVCAR-8 = tested on: OVCAR-8
OVCAR-3 = tested on: OVCAR-3
Hs-578T = tested on: Hs-578T
A498 = tested on: A498
LOX IMVI = tested on: LOX IMVI
K562 = tested on: K562
SF-295 = tested on: SF-295
MDA-MB-231 = tested on: MDA-MB-231
NCI-H226 = tested on: NCI-H226
DU-145 = tested on: DU-145
RXF 393 = tested on: RXF 393
HCC 2998 = tested on: HCC 2998
MCF7 = tested on: MCF7
SK-MEL-5 = tested on: SK-MEL-5
HL-60 = tested on: HL-60
NCI-H23 = tested on: NCI-H23
IGROV-1 = tested on: IGROV-1
HOP-92 = tested on: HOP-92
SK-OV-3 = tested on: SK-OV-3
M14 = tested on: M14
SNB-19 = tested on: SNB-19
PC-3 = tested on: PC-3
HT-29 = tested on: HT-29
786-0 = tested on: 786-0
HOP-62 = tested on: HOP-62
ACHN = tested on: ACHN
COLO 205 = tested on: COLO 205
UO-31 = tested on: UO-31
MOLT-4 = tested on: MOLT-4
BT-549 = tested on: BT-549
Malme-3M = tested on: Malme-3M

SMILES: CCOP(=O)(OCC)c1cc2cc(O)ccc2oc1=O
- GI50 (CCRF-CEM): > 100 µM (inactive)
- GI50 (HCT-15): > 100 µM
- GI50 (UACC-257): > 100 µM (inactive)
- GI50 (SNB-75): > 100 µM (inactive)
- GI50 (UACC-62): > 100 µM (inactive)
- GI50 (SR): > 100 µM (inactive)
- GI50 (A549): > 100 µM (inactive)
- GI50 (KM12): > 100 µM (inactive)
- GI50 (SF-539): > 100 µM (inactive)
- GI50 (NCI-H522): > 100 µM (inactive)
- GI50 (SF-268): > 100 µM (inactive)
- GI50 (NCI-H460): > 100 µM (inactive)
- GI50 (OVCAR-5): > 100 µM (inactive)
- GI50 (HCT-116): > 100 µM (inactive)
- GI50 (EKVX): > 100 µM (inactive)
- GI50 (SN12C): > 100 µM (inactive)
- GI50 (U-251): > 100 µM (inactive)
- GI50 (MDA-MB-435): > 100 µM (inactive)
- GI50 (CAKI-1): > 100 µM (inactive)
- GI50 (NCI/ADR-RES): > 100 µM (inactive)
- GI50 (MDA-N): > 100 µM (inactive)
- GI50 (TK-10): > 100 µM (inactive)
- GI50 (RPMI-8226): > 100 µM (inactive)
- GI50 (SW-620): > 100 µM (inactive)
- GI50 (T47D): > 100 µM (inactive)
- GI50 (SK-MEL-28): > 100 µM (inactive)
- GI50 (OVCAR-4): > 100 µM (inactive)
- GI50 (OVCAR-8): > 100 µM (inactive)
- GI50 (OVCAR-3): > 100 µM (inactive)
- GI50 (Hs-578T): > 100 µM (inactive)
- GI50 (A498): > 100 µM (inactive)
- GI50 (LOX IMVI): > 100 µM (inactive)
- GI50 (K562): > 100 µM (inactive)
- GI50 (SF-295): > 100 µM (inactive)
- GI50 (MDA-MB-231): > 100 µM (inactive)
- GI50 (NCI-H226): > 100 µM (inactive)
- GI50 (DU-145): > 100 µM (inactive)
- GI50 (RXF 393): > 100 µM (inactive)
- GI50 (HCC 2998): > 100 µM (inactive)
- GI50 (MCF7): > 100 µM (inactive)
- GI50 (SK-MEL-5): > 100 µM (inactive)
- GI50 (HL-60): > 100 µM (inactive)
- GI50 (NCI-H23): > 100 µM (inactive)
- GI50 (IGROV-1): > 100 µM (inactive)
- GI50 (HOP-92): > 100 µM (inactive)
- GI50 (SK-OV-3): > 100 µM (inactive)
- GI50 (M14): > 100 µM (inactive)
- GI50 (SNB-19): > 100 µM (inactive)
- GI50 (PC-3): > 100 µM (inactive)
- GI50 (HT-29): > 100 µM (inactive)
- GI50 (786-0): > 100 µM (inactive)
- GI50 (HOP-62): > 100 µM (inactive)
- GI50 (ACHN): > 100 µM (inactive)
- GI50 (COLO 205): > 100 µM (inactive)
- GI50 (UO-31): 0.0112 µM (active)

SMILES: CN1C(=O)N(C)C2(CCN(CCCCCCF)CC2)C1=O
- GI50 (CCRF-CEM): > 100 µM (inactive)
- GI50 (HCT-15): > 100 µM
- GI50 (UACC-257): > 100 µM (inactive)
- GI50 (MOLT-4): > 10 µM (inactive)
- GI50 (SNB-75): > 100 µM (inactive)
- GI50 (UACC-62): > 100 µM (inactive)
- GI50 (SR): > 100 µM (inactive)
- GI50 (A549): > 100 µM (inactive)
- GI50 (KM12): > 100 µM (inactive)
- GI50 (SF-539): > 100 µM (inactive)
- GI50 (NCI-H522): > 100 µM (inactive)
- GI50 (SF-268): > 100 µM (inactive)
- GI50 (OVCAR-5): > 100 µM (inactive)
- GI50 (HCT-116): > 100 µM (inactive)
- GI50 (EKVX): > 100 µM (inactive)
- GI50 (SN12C): > 100 µM (inactive)
- GI50 (U-251): > 100 µM (inactive)
- GI50 (MDA-MB-435): 26 µM (inactive)
- GI50 (CAKI-1): > 100 µM (inactive)
- GI50 (NCI/ADR-RES): > 100 µM (inactive)
- GI50 (MDA-N): > 100 µM (inactive)
- GI50 (BT-549): 23.3 µM (inactive)
- GI50 (TK-10): > 100 µM (inactive)
- GI50 (RPMI-8226): > 100 µM (inactive)
- GI50 (SW-620): > 100 µM (inactive)
- GI50 (T47D): > 100 µM (inactive)
- GI50 (SK-MEL-28): > 100 µM (inactive)
- GI50 (OVCAR-8): > 100 µM (inactive)
- GI50 (OVCAR-3): > 100 µM (inactive)
- GI50 (LOX IMVI): > 100 µM (inactive)
- GI50 (K562): > 100 µM (inactive)
- GI50 (SF-295): > 100 µM (inactive)
- GI50 (MDA-MB-231): > 100 µM (inactive)
- GI50 (NCI-H226): > 100 µM (inactive)
- GI50 (DU-145): > 100 µM (inactive)
- GI50 (RXF 393): > 100 µM (inactive)
- GI50 (HCC 2998): > 100 µM (inactive)
- GI50 (MCF7): > 100 µM (inactive)
- GI50 (SK-MEL-5): > 100 µM (inactive)
- GI50 (Malme-3M): > 100 µM (inactive)
- GI50 (HL-60): > 100 µM (inactive)
- GI50 (NCI-H23): > 100 µM (inactive)
- GI50 (IGROV-1): > 100 µM (inactive)
- GI50 (SK-OV-3): > 100 µM (inactive)
- GI50 (M14): > 100 µM (inactive)
- GI50 (SNB-19): > 100 µM (inactive)
- GI50 (PC-3): > 100 µM (inactive)
- GI50 (HT-29): > 100 µM (inactive)
- GI50 (786-0): > 100 µM (inactive)
- GI50 (HOP-62): > 100 µM (inactive)
- GI50 (ACHN): > 100 µM (inactive)
- GI50 (COLO 205): > 100 µM (inactive)
- GI50 (UO-31): > 100 µM (inactive)
